Here are results for 32 compounds from PubChem BioAssay (NCI).

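Step 1: Grow cells in 96-well plates. Step 2: Expose to compound for 48 hours at 5 concentrations. Step 3: Interpolate endpoints linearly; if unreached, use highest concentration. GI50 = concentration required for 50% inhibition of growth. TGI is the concentration that stops growth completely.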 A value given as a limit tells only on which side of the number the result lay.

The assay deals with MDA-MB-468 breast. Briefly: NCI anticancer screen, dose series, 48 h.
As for `O=Nc1c(-c2c(O)[nH]c3ccc([N+](=O)[O-])cc23)[nH]c2ccc(O)cc12`, the GI50 was 0.359 µM and the TGI came out at 2.85 µM. On the same counts, the results for `C[C@H](NC(=O)[C@@H]1CSSC[C@@H](NC(=O)c2nc3ccccc3cc2O)C(=O)NCC(=O)N1C)c1ccccc1` are 5.89 µM and 13.2 µM.

Consider `CCCCCCCNc1nc(C(=O)OCC)ncc1-c1ccc(C(F)(F)F)cc1`, for which the GI50 was 23.4 µM and the TGI came out at 93.1 µM. The corresponding values for `CC[C@@]1(O)C[C@H](OC2CC(N(C)C)C(OC3CC(O)C(OC4CCC(=O)C(C)O4)C(C)O3)C(C)O2)c2c(cc3c(c2O)C(=O)c2c(O)cccc2C3=O)[C@H]1C(=O)OC` (some centres not stated) are 0.017 µM and 0.123 µM. On the same counts, the results for `Cc1cc(/C=C\c2ccc3ccccc3[n+]2C)c(O)c2ncccc12` are 0.316 µM and 2.23 µM. The corresponding values for `CC1(C)CC[C@H](Nc2ncc(C(F)(F)F)c(-c3c[nH]c4c(P(C)(C)=O)c(C#N)ccc34)n2)CN1` are 1.22 µM and 5.11 µM. Take `COc1ccc2c(c1)c(CC(=O)[Se]CC#N)c(C)n2C(=O)c1ccc(Cl)cc1`: the GI50 is 1.2 µM and the TGI came out at 3.2 µM. The corresponding values for `FC(F)(F)c1cc(-c2nnc3n2N=C(N2CCCC2)CS3)cc(C(F)(F)F)c1` are 32 µM and > 50 µM.

Take `C=CCN(/C=C1/C(=O)O[C@H](COC)[C@@]2(C)C1=C(O)C(=O)C1=C2[C@H](OC(C)=O)C[C@]2(C)C(=O)CC[C@@H]12)CC=C`: the GI50 is 0.101 µM and the TGI amounted to 0.779 µM.

On to `O=C1C(c2c[nH]c3ccccc23)=C(c2c[nH]c3ccccc23)C(=O)N1O`, for which the GI50 is > 25 µM and the TGI was > 25 µM. With `O=C(Nc1ccccc1)Nc1nc2ccc([N+](=O)[O-])cc2s1`, the GI50 is 0.755 µM and the TGI was determined as 4.45 µM. The corresponding values for `COc1ccccc1/C=C/[N+](=O)[O-]` are 1.65 µM and 3.6 µM. On the same counts, the results for `COc1ccc(Nc2ncc(Br)c(NCCCNC(=O)C3CCC3)n2)cc1` are 15.4 µM and 37 µM. For the compound `Cc1c(S(C)(=O)=O)c(-c2cc(F)cc(N3CCN(c4ccc(NS(=O)(=O)c5ccc(N[C@H](CCN6CCC(C(=O)OCCCP(=O)(O)O)CC6)CSc6ccccc6)c(S(=O)(=O)C(F)(F)F)c5)cc4)CC3)c2)c(-c2ccc(Cl)cc2)n1C(C)C`, the GI50 was > 100 µM and the TGI was > 100 µM. In the case of `COc1ccc(N2Cc3cnc(Nc4ccccc4)nc3N([C@@H]3CC[C@@H](O)C3)C2=O)cc1`, the GI50 is 6.65 µM and the TGI is > 25 µM.

For the compound `O=C(/C=C/C12c3ccccc3C(c3ccccc31)C1C(=O)N(c3ccccc3)C(=O)C12)c1ccccc1` (configuration not stated), the GI50 was 1.87 µM and the TGI turned out to be 7.71 µM.

In the case of `CCN(CC)CCNc1ccc([N+](=O)[O-])c2sc3ccccc3c(=O)c12`, the GI50 is 1.45 µM and the TGI is 5.07 µM. The corresponding values for `CN1CCN(c2ccc(NC(=O)c3nc4ccc5[nH]ncc5c4c4c3CCCC4)cc2C(F)(F)F)CC1` are 0.859 µM and 1.98 µM. On the same counts, the results for `Cc1ccc(/C(=N\N=C(N)N)c2ccccc2)cc1` are 0.426 µM and 5.83 µM.

As to `CC(C)CNCC(O)COc1ccc(C(C)(C)c2ccc(OCC(O)CNCC(C)C)cc2)cc1` (configuration not stated), the GI50 is 2.18 µM and the TGI is 4.91 µM. On the same counts, the results for `COc1ccc(-c2nc3sc(-c4ccc(Cl)cc4)cn3n2)cc1` are 2.08 µM and > 50 µM.

On to `Oc1ccc(C(c2ccc(O)cc2)c2ccc(Cl)cn2)cc1`, for which the GI50 is 0.116 µM and the TGI was determined as 0.577 µM. As to `CCC(=O)O[C@H]1CC[C@H]2[C@@H]3CC[C@H]4CC(=O)[C@H](C)C[C@]4(C)[C@H]3CC[C@]12C`, the GI50 was 33.9 µM and the TGI is > 100 µM. As for `CC(=O)N(O)CCCCCNC(=O)CCC(=O)N(O)CCCCCNC(=O)CCC(=O)N(O)CCCCCN(CCCCCCCCCC[P+](c1ccccc1)(c1ccccc1)c1ccccc1)CCCCCCCCCC[P+](c1ccccc1)(c1ccccc1)c1ccccc1`, the GI50 is 1.68 µM and the TGI turned out to be 5.41 µM. The corresponding values for `O=[N+]([O-])c1ccc(S(=O)Cc2ccccc2)c([N+](=O)[O-])c1` (configuration not stated) are 1.7 µM and 3.13 µM.

With `COc1cc2c(c(OC)c1OC)-c1ccc(N)c(=O)cc1[C@@H](NC(C)=O)CC2`, the GI50 is < 0.01 µM. On to `Clc1ccc(N2N=C(c3cccc(Nc4ccncc4)c3)CC2c2ccc3c(c2)OCO3)cc1` (configuration not stated), for which the GI50 is 1.59 µM and the TGI worked out at 3.08 µM. The corresponding values for `CCn1c(C(=O)N(C2CC2)C2CC2)cc2c3c(ncn3C)c(Nc3cc(C)n(C)n3)nc21` are > 100 µM and > 100 µM.

Turning to `CCOC(=O)C1(Br)C(c2ccccc2)NC(=O)NC1(C)Br` (configuration not stated), the GI50 was 24 µM and the TGI was 70.5 µM. For the compound `CCCc1c(CC)c(=N)c2ccccc2n1C`, the GI50 was 3.22 µM and the TGI worked out at 48.7 µM. Consider `CCc1n(Cc2ccc3ccccc3n2)cc[n+]1Cc1ccc2ccccc2n1`, for which the TGI came out at 0.0994 µM.

For `C=C1SC(=Nc2c(C)cc(C)cc2C)N(C(=O)c2sc3ccccc3c2Cl)C12CCCCC2`, the GI50 is > 100 µM and the TGI is > 100 µM.
